From patent publication US5621002A, “Prodrugs for enzyme mediated activation” (Behringwerke Aktiengesellschaft, priority 1993, dated 1997)
Each block holds one molecule with its values, some of them ahead of it.

Columns and labels:
[1] = molecular target: T1, antibody-β-glucuronidase fusion protein (Homo sapiens, UniProt P08236); test: Km and Vmax determination, enzymatic cleavage by fusion protein monitored by HPLC; type: biochemical; details: 100 mM phosphate buffer + 1 mg/ml BSA, pH 7.2, 37° C., substrate 10-10000 μM
T1 construct: antibody part only targets
T1 sequence (P08236 23-651): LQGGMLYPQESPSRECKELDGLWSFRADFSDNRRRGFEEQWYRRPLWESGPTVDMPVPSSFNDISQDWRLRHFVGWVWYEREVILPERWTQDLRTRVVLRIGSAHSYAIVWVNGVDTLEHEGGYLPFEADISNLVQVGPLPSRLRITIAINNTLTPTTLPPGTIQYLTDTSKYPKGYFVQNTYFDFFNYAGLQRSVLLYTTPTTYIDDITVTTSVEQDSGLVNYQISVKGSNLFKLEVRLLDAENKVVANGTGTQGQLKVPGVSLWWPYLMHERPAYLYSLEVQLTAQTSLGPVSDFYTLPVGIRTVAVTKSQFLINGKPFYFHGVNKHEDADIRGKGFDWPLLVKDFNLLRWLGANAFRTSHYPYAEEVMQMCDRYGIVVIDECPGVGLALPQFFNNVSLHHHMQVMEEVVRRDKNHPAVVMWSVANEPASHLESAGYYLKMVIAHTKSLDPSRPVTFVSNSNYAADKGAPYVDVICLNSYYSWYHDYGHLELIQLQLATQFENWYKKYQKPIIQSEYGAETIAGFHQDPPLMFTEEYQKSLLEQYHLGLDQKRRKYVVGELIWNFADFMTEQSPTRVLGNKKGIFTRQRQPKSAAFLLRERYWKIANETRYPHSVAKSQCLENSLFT
Experimental: (§1) Comparison of Km- and V max-values of natural and improved substrate for antibody β-glucuronidase fusion protein
(§2) For Km- and Vmax-determination 3'-N-[4-(beta-D-Glucuronyloxy)-3-nitro-benzyloxycarbonyl]-doxorubicin and prodrug A should be diluted in the range of 10-10000 μM in 100 mM phosphate buffer+1 mg/ml BSA, pH 7.2. Enzymatic cleavage should be done with constant amounts of fusion protein at 37° C. Cleavage can be monitored by HPLC analysis. Km- and Vmax-values can be calculated with the software program GraFit 2.0 (Erithacus Software Ltd.).
(§3) The HPLC apparatus consisted of an autosampler (Abimed, model 231), an automatic sample extraction system (AASP, Varian) equipped with minicartridges containing C 18 reversed phase silica gel (Analytichem), a gradient pump (Gynkotek, model 480), a fluorescence detector (Shimazdu RF 535, Excitation: 495 nm, Emission: 560 nm). Before sample injection the minicartridges were preconditioned with 2.5 ml methanol and 1.5 ml phosphate buffer, pH 6. Analytes retained on the reversed phase silica gel were then eluted by valve switching and connection of the minicartridges to the mobile phase. Chromatography was performed on reversed phase material (Nucleosil C 18, 5 μm particle size, 120 mm length, 4,5 mm I.D.) and gradient elution. Elution was done by a gradient composed of 2 components (A: 20 mM phosphate, pH 3, B: acetonitrile). […]

[2] = substrate: [H][C@]1(O[C@H]2C[C@H](NC(=O)OCc3ccc(O[C@@H]4O[C@H](C(=O)O)[C@@H](O)[C@H](O)[C@H]4O)c([N+](=O)[O-])c3)[C@H](O)[C@H](C)O2)C[C@](O)(C(=O)CO)Cc2c(O)c3c(c(O)c21)C(=O)c1c(OC)cccc1C3=O; test: as above; type: biochemical, human; details: other: 100 mM phosphate buffer + 1 mg/ml BSA, pH 7.2, 37° C., substrate 10-10000 μM
Experimental: as §1, §2, §3

Km [1]: < 500 µM
Vmax [1]: ~ 0.635 nmol/μg/min
Molecule: COc1cccc2c1C(=O)c1c(O)c3c(c(O)c1C2=O)C[C@@](O)(C(=O)CO)C[C@@H]3O[C@H]1C[C@H](NC(=O)OCc2ccc(O[C@@H]3O[C@H]([C@H](O)C(=O)O)[C@H](O)[C@H]3O)c([N+](=O)[O-])c2)[C@H](O)[C@H](C)O1 [Prodrug A]

B1: antibody-β-glucuronidase fusion protein (Homo sapiens) (protein)
chain: T1 sequence (P08236 23-651)
notes: antibody part only targets
Km [2]: 1300 µM
Vmax [2]: 0.635 nmol/µg/min
